In patent US20260306640A1, “TECHNOLOGIES TARGETING CELL STATES” (Auron Therapeutics, Inc., priority 2023, published 2026):

biological target: KAT2A (Homo sapiens, UniProt Q92830); assay: KAT2A degradation, Western Blot (Jess), MOLM-13 cells; assay type: cell-based; set-up: degrader, Western blot; conditions: MOLM-13 cells, KAT2A, 24 h, Western Blot, vs DMSO; read-out: KAT2A MOLM-13 DC50
Procedure: MOLM-13 cells or NCI-H1048 cells were used for Western Blot analysis of KAT2A degradation. KAT2B degradation can be measured in a similar manner with NCI-H1048 cells.
MOLM-13 cells were maintained at 37° C. in 5% CO2 and 90% humidity in RPMI 1640 supplemented with 20% fetal bovine serum (FBS) and 1× penicillin/streptomycin. Cells were plated in full media at 1-2 million cells/2 mL in a 6-well tissue culture treated plate with or without compounds for 24 h at 37° C. in 5% CO2.
MOLM-13 cells or NCI-H1048 cells were washed with PBS, then lysed with RIPA buffer containing 1×protease and phosphatase inhibitors (SantaCruz Biotechnologies Cat #sc-24948A). Protein was isolated by centrifugation at 12,000×g for 10 minutes at 4° C. and supernatant was collected. Protein was quantified via Bradford assay. Samples were diluted to 4 μg lysate in 16 μL RIPA buffer and then 4 μL of Jess Sample Buffer. Samples were heated at 95° C. for 5 minutes. Samples were loaded onto 12-230 kDa Jess™ Separation Module, 8×25 capillary cartridges (SM-W004, Biotechne). Antibodies loaded were: Primary antibody for KAT2A (GCN5L2 (C26A10) Rabbit mAb (3305, CST)) and for KAT2B (PCAF (C14G9)) Rabbit mAb (3378, CST) at 1:1000 and Anti-Rabbit Detection Module for Jess™ (Cat No #DM-001, Biotechne). Signal was detected by chemiluminescence.
DC50 values were determined from percent reduction of protein as compared to the DMSO control.

Chain of KAT2A (Q92830 whole entry): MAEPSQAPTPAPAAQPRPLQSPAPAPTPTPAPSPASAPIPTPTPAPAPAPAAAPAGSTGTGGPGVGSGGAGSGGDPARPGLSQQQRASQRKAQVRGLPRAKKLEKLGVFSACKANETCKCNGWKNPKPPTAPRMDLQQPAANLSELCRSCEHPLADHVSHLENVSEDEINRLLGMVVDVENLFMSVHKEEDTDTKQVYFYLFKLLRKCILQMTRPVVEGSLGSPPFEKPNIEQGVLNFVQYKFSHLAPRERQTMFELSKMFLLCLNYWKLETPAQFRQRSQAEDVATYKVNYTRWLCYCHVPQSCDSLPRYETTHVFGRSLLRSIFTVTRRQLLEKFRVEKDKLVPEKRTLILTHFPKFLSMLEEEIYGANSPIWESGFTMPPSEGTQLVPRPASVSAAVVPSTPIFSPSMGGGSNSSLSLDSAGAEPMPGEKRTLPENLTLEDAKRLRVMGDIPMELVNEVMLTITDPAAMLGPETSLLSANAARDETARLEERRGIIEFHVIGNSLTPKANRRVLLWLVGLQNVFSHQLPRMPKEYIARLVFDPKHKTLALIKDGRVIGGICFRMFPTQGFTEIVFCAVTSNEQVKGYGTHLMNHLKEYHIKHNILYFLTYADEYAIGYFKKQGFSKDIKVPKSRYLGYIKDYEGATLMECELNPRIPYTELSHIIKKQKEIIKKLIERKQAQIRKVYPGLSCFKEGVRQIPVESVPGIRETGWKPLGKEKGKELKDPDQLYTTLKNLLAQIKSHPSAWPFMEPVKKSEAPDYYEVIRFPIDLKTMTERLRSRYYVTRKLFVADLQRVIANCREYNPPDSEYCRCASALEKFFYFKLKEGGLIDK

Compound	DC50 [nM]
CN1C[C@H](Nc2cnn(C)c(=O)c2Br)C[C@H](c2ccc(CN3CCC(Oc4cccc5c4C(=O)N(C4CCC(=O)NC4=O)C5=O)CC3)cc2)C1 (stereo partly shown) [Compound 36]	1 to 30
Cc1ccc(OC2CCN(C(=O)c3ccc([C@H]4C[C@@H](Nc5cnn(C)c(=O)c5Br)CN(C)C4)cc3)CC2)cc1C1CCC(=O)NC1=O (stereo partly shown) [Compound 121]	1 to 30
CN1C[C@H](Nc2cnn(C)c(=O)c2Br)C[C@H](c2ccc(C(=O)N3CCN(C4CCN(C5CCC(=O)NC5=O)CC4)CC3)cc2)C1 (stereo partly shown) [Compound 149]	1 to 30
CN1C[C@H](Nc2cnn(C)c(=O)c2Br)C[C@H](c2ccc(C(=O)N3CCC(Oc4ccc(F)c(C5CCC(=O)NC5=O)c4)CC3)cc2)C1 (stereo partly shown) [Compound 131]	1 to 30
CN1C[C@H](Nc2cnn(C)c(=O)c2Br)C[C@H](c2ccc(C(=O)N3CC(Oc4cccc5c4C(=O)N(C4CCC(=O)NC4=O)C5=O)C3)cc2)C1 (stereo partly shown) [Compound 62]	1 to 30
CN1C[C@H](Nc2cnn(C)c(=O)c2Br)C[C@H](c2ccc(C(=O)N3CC4(C3)CN(c3cccc(C5CCC(=O)NC5=O)c3)C4)cc2)C1 (stereo partly shown) [Compound 148]	1 to 30
CN1C[C@H](Nc2cnn(C)c(=O)c2Br)C[C@H](c2ccc(C(=O)N(C)c3cccc(Oc4cccc5c4C(=O)N(C4CCC(=O)NC4)C5=O)c3)cc2)C1 (stereo partly shown) [Compound 26]	1 to 30
CN1C[C@H](Nc2cnn(C)c(=O)c2Br)C[C@H](c2ccc(C(=O)N3CCN(Cc4ccc(C(=O)Nc5ccc6c(c5)C(=O)N(C5CCC(=O)NC5=O)C6=O)cc4)CC3)cc2)C1 (stereo partly shown) [Compound 61]	1 to 30
CN1C[C@H](Nc2cnn(C)c(=O)c2Br)C[C@H](c2ccc(C(=O)N3CCC(c4ccc(C5CCC(=O)NC5=O)cc4)CC3)cc2)C1 (stereo partly shown) [Compound 81]	1 to 30
CN1C[C@H](Nc2cnn(C)c(=O)c2Br)C[C@H](c2ccc(C(=O)N3CCN(c4ccc5c(c4)oc(=O)n5C4CCC(=O)NC4=O)CC3)cc2)C1 (stereo partly shown) [Compound 181]	1 to 30
CN1C[C@H](Nc2cnn(C)c(=O)c2Br)C[C@H](c2ccc(C(=O)N3CCC(c4cccc(CN5CCC(=O)NC5=O)c4)CC3)cc2)C1 [Compound 140]	> 30
CN1C[C@H](Nc2cnn(C)c(=O)c2Br)C[C@H](c2ccc(C(=O)N(C)c3cccc(Oc4ccc5c(c4)C(=O)N(C4CCC(=O)NC4=O)C5=O)c3)cc2)C1 (stereo partly shown) [Compound 34]	1 to 30
CN1C[C@H](Nc2cnn(C)c(=O)c2Br)C[C@H](c2ccc(C(=O)N3CCC4(CC3)CN(c3cccc(C5CCC(=O)NC5=O)c3)C4)cc2)C1 (stereo partly shown) [Compound 128]	1 to 30
CN1C[C@H](Nc2cnn(C)c(=O)c2Br)C[C@H](c2ccc(C(=O)N3CCC(C#CC(=O)Nc4ccc5c(c4)CN(C4CCC(=O)NC4=O)C5=O)CC3)cc2)C1 (stereo partly shown) [Compound 5]	1 to 30
CN1C[C@H](Nc2cnn(C)c(=O)c2Br)C[C@H](c2ccc(CN3CC(Oc4cccc5c4C(=O)N(C4CCC(=O)NC4=O)C5=O)C3)cc2)C1 (stereo partly shown) [Compound 64]	1 to 30
Cc1ccc(OC2CCN(Cc3ccc([C@H]4C[C@@H](Nc5cnn(C)c(=O)c5Br)CN(C)C4)cc3)CC2)cc1C1CCC(=O)NC1=O (stereo partly shown) [Compound 122]	1 to 30
CN1C[C@H](Nc2cnn(C)c(=O)c2Br)C[C@H](c2ccc(COc3cccc4c3C(=O)N(C3CCC(=O)NC3=O)C4=O)cc2)C1 (stereo partly shown) [Compound 38]	1 to 30
CN1C[C@H](Nc2cnn(C)c(=O)c2Br)C[C@H](c2ccc(C(=O)N3CC4(CN(Cc5cccc6c5C(=O)N(C5CCC(=O)NC5=O)C6=O)C4)C3)cc2)C1 (stereo partly shown) [Compound 59]	1 to 30
CN1C[C@H](Nc2cnn(C)c(=O)c2Cl)C[C@H](c2ccc(CN3CCN(Cc4ccc5c(c4)CN(C4CCC(=O)NC4=O)C5=O)CC3)cc2)C1 (stereo partly shown) [Compound 75]	1 to 30
CN1C[C@H](Nc2nn(C)c(=O)n(C)c2=O)C[C@H](c2ccc(C(=O)N3CCN(Cc4ccc(C(=O)Nc5cccc6c5C(=O)N(C5CCC(=O)NC5=O)C6=O)cc4)CC3)cc2)C1 (stereo partly shown) [Compound 56]	> 30
CN1C[C@H](Nc2cnn(C)c(=O)c2C2CC2)C[C@H](c2ccc(CN3CCC(c4ccc5c(c4)CN(C4CCC(=O)NC4=O)C5=O)CC3)cc2)C1 (stereo partly shown) [Compound 129]	1 to 30
CN1C[C@H](Nc2cnn(C)c(=O)c2Br)C[C@H](c2ccc(C(=O)N(C)C3CCN(c4cccc5c4C(=O)N(C4CCC(=O)NC4=O)C5=O)CC3)cc2)C1 (stereo partly shown) [Compound 13]	1 to 30
CN1C[C@H](Nc2cnn(C)c(=O)c2Br)C[C@H](c2ccc(C(=O)N3CCC4(CCN(c5ccc6c(c5)C(=O)N(C5CCC(=O)NC5=O)C6=O)C4)C3)cc2)C1 (stereo partly shown) [Compound 98]	1 to 30
CN1C[C@H](Nc2cnn(C)c(=O)c2Br)C[C@H](c2ccc(CN3CCC4(CC3)CN(c3cccc(C5CCC(=O)NC5=O)c3)C4)cc2)C1 (stereo partly shown) [Compound 127]	1 to 30
CN1C[C@H](Nc2cnn(C)c(=O)c2Br)C[C@H](c2ccc(C(=O)N3CCC(Oc4cccc(C5CCC(=O)NC5=O)c4)CC3)cc2)C1 (stereo partly shown) [Compound 119]	1 to 30
CN1C[C@H](Nc2cnn(C)c(=O)c2Br)C[C@H](c2ccc(C(=O)N3CCN(CCOCCC(=O)Nc4cccc5c4C(=O)N(C4CCC(=O)NC4=O)C5=O)CC3)cc2)C1 (stereo partly shown) [Compound 7]	1 to 30
C#Cc1c(N[C@@H]2C[C@H](c3ccc(CN4CCC(c5ccc6c(c5)CN(C5CCC(=O)NC5=O)C6=O)CC4)cc3)CN(C)C2)cnn(C)c1=O (stereo partly shown) [Compound 171]	> 30
CN1C[C@H](Nc2cnn(C)c(=O)c2Cl)C[C@H](c2ccc(C(=O)N3CCN(Cc4ccc5c(c4)CN(C4CCC(=O)NC4=O)C5=O)CC3)cc2)C1 (stereo partly shown) [Compound 76]	1 to 30
CN1C[C@H](Nc2cnn(C)c(=O)c2Br)C[C@H](c2ccc(C(=O)N3CCC(c4ccc(CN5CCC(=O)NC5=O)cc4)CC3)cc2)C1 [Compound 136]	> 30

Further lines, results first:

DC50 [nM]	Compound
< 1	Cc1ccc(N2CCC3(CCN(C(=O)c4ccc([C@H]5C[C@@H](Nc6cnn(C)c(=O)c6Br)CN(C)C5)cc4)CC3)CC2)cc1C1CCC(=O)NC1=O (stereo partly shown) [Compound 179]
< 1	CN1C[C@H](Nc2cnn(C)c(=O)c2Br)C[C@H](c2ccc(CN3CCC4(CC3)CCN(c3ccc(F)c(C5CCC(=O)NC5=O)c3)CC4)cc2)C1 (stereo partly shown) [Compound 174]
< 1	CN1C[C@H](Nc2cnn(C)c(=O)c2Cl)C[C@H](c2ccc(C(=O)N3CCN(c4ccc5c(c4)C(=O)N(C4CCC(=O)NC4=O)C5=O)CC3)cc2)C1 (stereo partly shown) [Compound 176]
< 1	CN1C[C@H](Nc2cnn(C)c(=O)c2Br)C[C@H](c2ccc(C(=O)N3CCN(CC4CCN(c5ccc6c(c5)C(=O)N(C5CCC(=O)NC5=O)C6=O)CC4)CC3)cc2)C1 (stereo partly shown) [Compound 111]
< 1	CN1C[C@H](Nc2cnn(C)c(=O)c2Br)C[C@H](c2ccc(C(=O)N3CCC4(CC3)CCN(c3ccc(F)c(C5CCC(=O)NC5=O)c3)CC4)cc2)C1 (stereo partly shown) [Compound 169]
< 1	CN1C[C@H](Nc2cnn(C)c(=O)c2Br)C[C@H](c2ccc(CN3CCC4(CCN(c5ccc6c(c5)C(=O)N(C5CCC(=O)NC5=O)C6=O)C4)C3)cc2)C1 (stereo partly shown) [Compound 109]
< 1	Cc1cc(N2CCC3(CCN(Cc4ccc([C@H]5C[C@@H](Nc6cnn(C)c(=O)c6Br)CN(C)C5)cc4)CC3)CC2)ccc1C1CCC(=O)NC1=O (stereo partly shown) [Compound 166]
< 1	CN1C[C@H](Nc2cnn(C)c(=O)c2Br)C[C@H](c2ccc(CNCC3CCC(COc4cccc5c4C(=O)N(C4CCC(=O)NC4=O)C5=O)CC3)cc2)C1 (stereo partly shown) [Compound 35]
< 1	CN1C[C@H](Nc2cnn(C)c(=O)c2Br)C[C@H](c2ccc(C(=O)N3CC4(C3)CN(c3cccc5c3C(=O)N(C3CCC(=O)NC3=O)C5=O)C4)cc2)C1 (stereo partly shown) [Compound 29]
< 1	CN1C[C@H](Nc2cnn(C)c(=O)c2Br)C[C@H](c2ccc(C(=O)N3CCN(Cc4ccc(C(=O)Nc5cccc6c5C(=O)N(C5CCC(=O)NC5=O)C6=O)cc4)CC3)cc2)C1 (stereo partly shown) [Compound 6]
< 1	CN1C[C@H](Nc2cnn(C)c(=O)c2Br)C[C@H](c2ccc(CN3CCC4(CC3)CCN(c3ccc(C5CCC(=O)NC5=O)cc3F)CC4)cc2)C1 (stereo partly shown) [Compound 158]
< 1	CN1C[C@H](Nc2cnn(C)c(=O)c2Br)C[C@H](c2ccc(C(=O)N3CCN(CC4CCN(c5cccc6c5C(=O)N(C5CCC(=O)NC5=O)C6=O)CC4)CC3)cc2)C1 (stereo partly shown) [Compound 9]
< 1	CN1C[C@H](Nc2cnn(C)c(=O)c2Br)C[C@H](c2ccc(C(=O)N3CCC(CN4CCC(c5ccc6c(c5)C(=O)N(C5CCC(=O)NC5=O)C6=O)CC4)CC3)cc2)C1 (stereo partly shown) [Compound 107]
< 1	CN1C[C@H](Nc2cnn(C)c(=O)c2Br)C[C@H](c2ccc(CN3CC(Oc4ccc(C5CCC(=O)NC5=O)cc4)C3)cc2)C1 (stereo partly shown) [Compound 182]
< 1	CN1C[C@H](Nc2cnn(C)c(=O)c2Br)C[C@H](c2ccc(CN3CC4(C3)CN(c3ccc5c(c3)CN(C3CCC(=O)NC3=O)C5=O)C4)cc2)C1 (stereo partly shown) [Compound 37]
< 1	CN1C[C@H](Nc2cnn(C)c(=O)c2Br)C[C@H](c2ccc(C(=O)N3CCC(c4ccc5c(c4)CN(C4CCC(=O)NC4=O)C5=O)CC3)cc2)C1 (stereo partly shown) [Compound 63]
< 1	CN1C[C@H](Nc2cnn(C)c(=O)c2Br)C[C@H](c2ccc(CNc3ccc4c(c3)C(=O)N(C3CCC(=O)NC3=O)C4=O)cc2)C1 (stereo partly shown) [Compound 106]
